In patent US20220009914A1, “Analogs of Nitrofuran Antibiotics to Combat Resistance” (The Trustees of Indiana University, priority 2020, published 2022):

Tests used:
[1] = system: Enterococcus faecium strain NCTC 7171 (ATCC #19434); experiment: bacterial proliferation assay, E. faecium; assay type: cell-based; details: read-out: Bacterial Proliferation EC50 E. faecium
Experimental: All compounds were evaluated for inhibiting the proliferation of E. coli and each of the ESKAPE bacteria. Results presented represent the averages of EC50 values obtained from at least four replicates. Evaluating compounds for inhibition of bacterial cell proliferation.
Growth Media: E. coli were grown with LB medium and all ESKAPE bacteria were grown in Brain Heart Infusion (BHI) medium (Becton, Dickinson and Company), with all liquid cultures supplemented with 25 mg/L Ca^2+ and 12.5 mg/L Mg^2+ to mimic physiological free concentrations of these cations. A 10 mg/mL Ca^2+ stock solution was prepared by dissolving 1.84 g of CaCl2.2H2O in 50 mL of deionized water, and a 10 mg/mL Mg^2+ stock solution was prepared by dissolving 4.18 g of MgCl2.6H2O in 50 mL deionized water—filter sterilized using 0.2 μm cellulose-acetate filters. 2.5 mL of the sterile 10 mg/mL Ca^2+ stock and 1.25 mL of the sterile 10 mg/mL Mg^2+ stock solutions were added per 1 L of autoclaved LB or BHI media to obtain 25 mg/L Ca^2+ and 12.5 mg/L Mg^2+ ions, respectively.
General Assay Protocol: Stock bacterial cultures were streaked onto LB or BHI agar plates and grown overnight at 37° C. Fresh aliquots of cation supplemented media were inoculated with single bacterial colonies and the cultures were grown overnight at 37° C. with shaking (240 rpm). The following morning, cultures were diluted 10-fold into fresh media and grown at 37° C. until bacteria had reached mid-log phase growth (OD600˜0.4-0.6). The cultures were then diluted into fresh media to achieve final OD600 readings of 0.017. Aliquots of these diluted cultures (30 μL) were added to clear, flat-bottom 384-well polystyrene plates that were previously stamped with 0.5 μL of test compounds in 20 μL of media (yielding initial OD600=0.01 bacterial cultures). All compounds were tested in dose-response with concentration ranges during the proliferation assays from 100 μM to 46 nM (3-fold dilution series). A second set of baseline control plates were prepared analogously, but without any bacteria added, to correct for possible compound absorbance and/or precipitation. […] Plates were then read at 600 nm using a Molecular Devices SpectraMax Plus384 microplate reader. […] Results presented represent the averages of EC50 values obtained from at least four replicates.
Evaluating analogs for inhibiting the growth of E. coli and the ESKAPE bacteria. Analogs were initially tested for antibacterial efficacy against representative strains of antibiotic-sensitive E. coli and the ESKAPE bacteria. To determine compound efficacy, bacterial proliferation assays were carried out in liquid media culture supplemented with physiological concentrations of free calcium and magnesium cations. For these assays, bacterial cultures (OD600=0.01) were exposed to test compounds in 8-point, 3-fold dilution series (100 μM to 46 nM concentration range), in 384-well plates. After addition of compounds to cultures, the plates were sealed with Breathe-Easy gas permeable membranes and allowed to grow to mid-log phase (OD600˜0.4-0.6), whereupon final OD600 readings were taken to assess for bacterial growth and inhibition.

[2] = in vitro; details: human
Experimental: (§1) Evaluating compound effects on the viability of human colon and small intestine cells. […] Evaluating compound effects on the viability of human colon and small intestine cells. Evaluation of compound cytotoxicities to FHC colon and FHs 74 Int small intestine cells were performed using Alamar Blue-based viability assays. […] FHs 74 Int cells were maintained in Hybri-care medium (ATCC 46-X) supplemented with 30 ng/mL recombinant epidermal growth factor (EGF) and 10% FBS (Midwest Scientific, USDAFBS).

[3] = in vitro; details: human; remark: listed apart in the source
Experimental: as §1

| SMILES | EC50 [1] [µM] | CC50 at 48 h [2] [µM] | CC50 at 48 h [3] [µM] |
| --- | --- | --- | --- |
| O=C(N/N=C/c1ccc([N+](=O)[O-])o1)c1cccc(Oc2ccccc2)c1 [Compound 24, N′-((5-nitrofuran-2-yl)methylene)-3-phenoxybenzohydrazide] | 11 | – | – |
| COc1ccc(C(=O)NN)cc1 [Compound 42, reference compound] | > 100 | > 100 | > 100 |
| COc1ccc(C(=O)N/N=C/c2ccc(O)c3ccccc23)cc1 [Compound 29, N′-((4-hydroxynaphthalen-1-yl)methylene)-4-methoxybenzohydrazide] | > 100 | > 100 | > 100 |
| O=C(N/N=C/c1ccc(O)c2ncccc12)c1ccccc1Oc1ccccc1 [Compound 10, N′-((8-hydroxyquinolin-5-yl)methylene)-2-phenoxybenzohydrazide] | > 100 | – | – |
| O=C(N/N=C/c1ccc([N+](=O)[O-])o1)c1cccc2ccccc12 [Compound 22, N′-((5-nitrofuran-2-yl)methylene)-1-naphthohydrazide] | 16 | – | – |
| O=C(N/N=C/c1ccc([N+](=O)[O-])o1)c1ccccc1Oc1ccccc1 [Compound 23, N′-((5-nitrofuran-2-yl)methylene)-2-phenoxybenzohydrazide] | 11 | – | – |
| O=C(N/N=C/c1ccc(O)c2ncccc12)c1ccc(Cl)s1 [Compound 4, 5-chloro-N′-((8-hydroxyquinolin-5-yl)methylene)thiophene-2-carbohydrazide] | 70 | – | – |
| O=C(N/N=C/c1ccc(O)c2ncccc12)c1ccc(NS(=O)(=O)c2cccs2)cc1 [Compound 13, N-(4-(2-((8-hydroxyquinolin-5-yl)methylene)hydrazine-1-carbonyl)phenyl)thiophene-2-sulfonamide] | > 100 | – | – |
| CCN(CC)S(=O)(=O)c1cccc(C(=O)N/N=C/c2ccc(O)c3ncccc23)c1 [Compound 12, N,N-diethyl-3-(2-((8-hydroxyquinolin-5-yl)methylene)hydrazine-1-carbonyl)benzenesulfonamide] | > 100 | – | – |
| O=C(N/N=C/c1ccc(O)c2ccccc12)c1ccccc1 [Compound 30, N′-((4-hydroxynaphthalen-1-yl)methylene)benzohydrazide] | > 100 | > 100 | > 100 |
| COc1ccc(C(=O)N/N=C/c2cccc3ncccc23)cc1 [Compound 31, 4-methoxy-N′-(quinolin-5-ylmethylene)benzohydrazide] | > 100 | > 100 | > 100 |
| O=C(N/N=C/c1ccc(O)c2ncccc12)c1cccc2ccccc12 [Compound 9, N′-((8-hydroxyquinolin-5-yl)methylene)-1-naphthohydrazide] | > 100 | – | – |
| O=C(N/N=C/c1ccc([N+](=O)[O-])o1)c1ccc(NS(=O)(=O)c2cccs2)cc1 [Compound 26, N-(4-(2-((5-nitrofuran-2-yl)methylene)hydrazine-1-carbonyl)phenyl)thiophene-2-sulfonamide] | 11 | 70 | > 100 |
| CCOc1ccc(S(=O)(=O)Nc2ccc(C(=O)N/N=C/c3ccc(O)c4ncccc34)cc2)cc1 [Compound 15, 4-ethoxy-N-(4-(2-((8-hydroxyquinolin-5-yl)methylene)hydrazine-1-carbonyl)phenyl)benzenesulfonamide] | > 100 | – | – |
| O=C(N/N=C/c1ccc(O)cc1)c1ccccc1 [Compound 36, N′-(4-hydroxybenzylidene)benzohydrazide] | > 100 | > 100 | > 100 |
| COc1ccc(C(=O)N/N=C/c2ccco2)cc1 [Compound 39, N′-(furan-2-ylmethylene)-4-methoxybenzohydrazide] | > 100 | > 100 | > 100 |
| O=C(N/N=C/c1cccc2ccccc12)c1ccccc1 [Compound 34, N′-(naphthalen-1-ylmethylene)benzohydrazide] | > 100 | > 100 | > 100 |

| SMILES | EC50 [1] [µM] | CC50 at 48 h [2] [µM] | CC50 at 48 h [3] [µM] |
| --- | --- | --- | --- |
| O=C(N/N=C/c1ccc(O)c2ncccc12)c1ccccc1 [Compound 5, N′-((8-hydroxyquinolin-5-yl)methylene)benzohydrazide] | > 100 | – | – |
| O=C(N/N=C/c1ccc(O)c2ncccc12)c1ccc(NS(=O)(=O)c2ccc(Br)cc2)cc1 [Compound 14, 4-bromo-N-(4-(2-((8-hydroxyquinolin-5-yl)methylene)hydrazine-1-carbonyl)phenyl)benzenesulfonamide] | > 100 | – | – |
| CCN(CC)S(=O)(=O)c1cccc(C(=O)N/N=C/c2ccc([N+](=O)[O-])o2)c1 [Compound 25, N,N-diethyl-3-(2-((5-nitrofuran-2-yl)methylene)hydrazine-1-carbonyl)benzenesulfonamide] | > 100 | > 100 | > 100 |
| O=C(N/N=C/c1ccccc1)c1ccccc1 [Compound 38, N′-benzylidenebenzohydrazide] | > 100 | > 100 | > 100 |
| O=C(N/N=C/c1ccc(O)c2ncccc12)c1ccc(O)cc1 [Compound 7, 4-hydroxy-N′-((8-hydroxyquinolin-5-yl)methylene)benzohydrazide] | > 100 | 67 | > 100 |
| O=C(N/N=C/c1ccc([N+](=O)[O-])o1)c1ccc(NS(=O)(=O)c2ccc(Br)cc2)cc1 [Compound 27, 4-bromo-N-(4-(2-((5-nitrofuran-2-yl)methylene)hydrazine-1-carbonyl)phenyl)benzenesulfonamide] | > 100 | > 100 | 90 |
| O=C(N/N=C/c1cccc2ncccc12)c1ccccc1 [Compound 32, N′-(quinolin-5-ylmethylene)benzohydrazide] | > 100 | > 100 | > 100 |
| COc1ccc(C(=O)N/N=C/c2cccc3ccccc23)cc1 [Compound 33, 4-methoxy-N′-(naphthalen-1-ylmethylene)benzohydrazide] | > 100 | > 100 | > 100 |
| O=C(N/N=C/c1ccc(O)c2ncccc12)c1cccs1 [Compound 3, N′-((8-hydroxyquinolin-5-yl)methylene)thiophene-2-carbohydrazide] | > 100 | 86 | 85 |
| O=C(N/N=C/c1ccc(O)c2ncccc12)c1ccncc1 [Compound 6, N′-((8-hydroxyquinolin-5-yl)methylene)isonicotinohydrazide] | > 100 | 75 | > 100 |
| CN(C)c1ccc(C(=O)N/N=C/c2ccc(O)c3ncccc23)cc1 [Compound 8, 4-(dimethylamino)-N′-((8-hydroxyquinolin-5-yl)methylene)benzohydrazide] | > 100 | – | – |
| CCOc1ccc(S(=O)(=O)Nc2ccc(C(=O)N/N=C/c3ccc([N+](=O)[O-])o3)cc2)cc1 [Compound 28, 4-ethoxy-N-(4-(2-((5-nitrofuran-2-yl)methylene)hydrazine-1-carbonyl)phenyl)benzenesulfonamide] | > 100 | > 100 | 85 |
| O=C(N/N=C/c1ccc(O)c2ncccc12)c1cccc(Oc2ccccc2)c1 [Compound 11, N′-((8-hydroxyquinolin-5-yl)methylene)-3-phenoxybenzohydrazide] | > 100 | – | – |
| COc1ccc(C(=O)N/N=C/c2ccccc2)cc1 [Compound 37, N′-benzylidene-4-methoxybenzohydrazide] | > 100 | > 100 | > 100 |
| O=[N+]([O-])c1ccc(O)c2ncccc12 [Nitroxoline, reference compound] | 18 | – | – |
| COc1ccc(C(=O)N/N=C/c2ccc(O)cc2)cc1 [Compound 35, N′-(4-hydroxybenzylidene)-4-methoxybenzohydrazide] | > 100 | > 100 | > 100 |
